Test results as given in ChEMBL document CHEMBL1131559, “Novel quinolone derivatives as potent antibacterials” (1998).

Legend:
Escherichia coli [1] = experiment: Compound was evaluated for in vitro antibacterial activity against gram negative organism Escherichia coli strain DRCC 091; assay type: functional
Pseudomonas aeruginosa [2] = experiment: Compound was evaluated for in vitro antibacterial activity against gram negative organism Pseudomonas aeruginosa strains ATCC 27853; assay type: functional
Enterococcus faecalis [3] = experiment: Compound was evaluated for in vitro antibacterial activity against gram positive organism Streptococcus faecalis strain ATCC 49384; assay type: functional
Staphylococcus aureus [4] = experiment: Compound was evaluated for in vitro antibacterial activity against gram positive organism Staphylococcus aureus strain ATCC 33592; assay type: functional
Pseudomonas fluorescens = experiment: Compound was evaluated for in vitro antibacterial activity against gram negative organism Pseudomonas fluorescence strain DRCC 008; assay type: functional
[5] = tested on: Salmonella enterica subsp. enterica serovar Abony; experiment: Compound was evaluated for in vitro antibacterial activity against gram negative organism Salmonella abony strain NCIM 2257; assay type: functional
Klebsiella pneumoniae [6] = experiment: Compound was evaluated for in vitro antibacterial activity against gram negative organism Klebsiella pneumoniae strain DRCC 132; assay type: functional
Enterococcus faecalis [7] = experiment: Compound was evaluated for in vitro antibacterial activity against gram positive organism Streptococcus faecalis strain ATCC 29212; assay type: functional
Staphylococcus aureus [8] = experiment: Compound was evaluated for in vitro antibacterial activity against gram positive organism Staphylococcus aureus strain ATCC 29213; assay type: functional
Salmonella typhimurium = experiment: Compound was evaluated for in vitro antibacterial activity against gram negative organism Salmonella Typhimurium MTCC 98; assay type: functional, Salmonella enterica subsp. enterica serovar Typhimurium; conditions: Salmonella enterica
Pseudomonas aeruginosa [9] = experiment: Compound was evaluated for in vitro antibacterial activity against gram negative organism Pseudomonas aeruginosa strain DRCC 137; assay type: functional
Klebsiella pneumoniae [10] = experiment: Compound was evaluated for in vitro antibacterial activity against gram negative organism Klebsiella pneumoniae strain ATCC 10031; assay type: functional
Salmonella typhi = experiment: Compound was evaluated for in vitro antibacterial activity against gram negative organism Salmonella typhi strain MTCC 531; assay type: functional, Salmonella enterica subsp. enterica serovar Typhi; conditions: Salmonella enterica
Staphylococcus aureus [11] = experiment: Compound was evaluated for in vitro antibacterial activity against gram positive organism Staphylococcus aureus strain MTCC 737; assay type: functional
Pseudomonas aeruginosa [12] = experiment: Compound was evaluated for in vitro antibacterial activity against gram negative organism Pseudomonas aeruginosa strain DRCC 131; assay type: functional
Staphylococcus aureus [13] = experiment: Compound was evaluated for in vitro antibacterial activity against gram positive organism Staphylococcus aureus strain ATCC 6538P; assay type: functional
Klebsiella pneumoniae [14] = experiment: Compound was evaluated for in vitro antibacterial activity against gram negative organism Klebsiella pneumoniae strain DRCC 136; assay type: functional
Pseudomonas aeruginosa [15] = experiment: Compound was evaluated for in vitro antibacterial activity against gram negative organism Pseudomonas aeruginosa strain MTCC 1688; assay type: functional
Escherichia coli [16] = experiment: Compound was evaluated for in vitro antibacterial activity against gram negative organism Escherichia coli strain DRCC 134; assay type: functional
Enterococcus faecalis [17] = experiment: Compound was evaluated for in vitro antibacterial activity against gram positive organism Streptococcus faecalis strain ATCC 51299; assay type: functional
Escherichia coli [18] = experiment: Compound was evaluated for in vitro antibacterial activity against gram negative organism Escherichia coli strain ATCC 25922; assay type: functional
Pseudomonas aeruginosa [19] = experiment: Compound was evaluated for in vitro antibacterial activity against gram negative organism Pseudomonas aeruginosa strain DRCC 135; assay type: functional
[20] = tested on: Staphylococcus epidermidis; experiment: Compound was evaluated for in vitro antibacterial activity against gram positive organism Staphylococcus epidermidis strain ATCC 12228; assay type: functional
Escherichia coli [21] = experiment: Compound was evaluated for in vitro antibacterial activity against gram negative organism Escherichia coli strain DRCC 133; assay type: functional
Staphylococcus aureus [22] = experiment: Compound was evaluated for in vitro antibacterial activity against gram positive organism Staphylococcus aureus strain ATCC 33591; assay type: functional
Streptococcus pyogenes = experiment: Compound was evaluated for in vitro antibacterial activity against gram positive organism Streptococcus pyogenes strain DRCC 092; assay type: functional
Escherichia coli [23] = experiment: Compound was evaluated for in vitro antibacterial activity against gram negative organism Escherichia coli strain ATCC 35218; assay type: functional

Structure (SMILES) | MIC (Escherichia coli [1]) [µg/mL] | MIC (Pseudomonas aeruginosa [2]) [µg/mL] | MIC (Enterococcus faecalis [3]) [µg/mL] | MIC (Staphylococcus aureus [4]) [µg/mL] | MIC (Pseudomonas fluorescens) [µg/mL] | MIC [5] [µg/mL] | MIC (Klebsiella pneumoniae [6]) [µg/mL] | MIC (Enterococcus faecalis [7]) [µg/mL] | MIC (Staphylococcus aureus [8]) [µg/mL] | MIC (Salmonella typhimurium) [µg/mL] | MIC (Pseudomonas aeruginosa [9]) [µg/mL] | MIC (Klebsiella pneumoniae [10]) [µg/mL] | MIC (Salmonella typhi) [µg/mL] | MIC (Staphylococcus aureus [11]) [µg/mL] | MIC (Pseudomonas aeruginosa [12]) [µg/mL] | MIC (Staphylococcus aureus [13]) [µg/mL] | MIC (Klebsiella pneumoniae [14]) [µg/mL] | MIC (Pseudomonas aeruginosa [15]) [µg/mL] | MIC (Escherichia coli [16]) [µg/mL] | MIC (Enterococcus faecalis [17]) [µg/mL] | further results
CN[C@@H]1CN(c2cc3c(cc2F)c(=O)c(C(=O)O)cn3C2CC2)C[C@H]1NC.Cl | > 8 | 4 | 4 | 0.5 | > 8 | 1 | > 8 | 2 | 1 | 0.5 | > 8 | 0.06 | 0.5 | 1 | 2 | 0.5 | 0.5 | 2 | > 8 | 0.25 | MIC (Escherichia coli [18]): 0.125 µg/mL; MIC (Pseudomonas aeruginosa [19]): > 8 µg/mL; MIC [20]: 0.5 µg/mL; MIC (Escherichia coli [21]): > 8 µg/mL; MIC (Staphylococcus aureus [22]): 1 µg/mL; MIC (Streptococcus pyogenes): 0.06 µg/mL; MIC (Escherichia coli [23]): 0.25 µg/mL
CN[C@@H]1CN(c2cc3c(cc2F)c(=O)c(C(=O)O)cn3-c2ccc(F)cc2)C[C@H]1NC.Cl | > 8 | 4 | 0.5 | 0.25 | 2 | 0.5 | > 8 | 0.5 | 0.5 | 1 | 1 | 0.125 | 0.25 | 0.5 | 0.25 | 0.5 | 0.5 | 2 | > 8 | 0.25 | MIC (Escherichia coli [18]): 0.5 µg/mL; MIC (Pseudomonas aeruginosa [19]): > 8 µg/mL; MIC [20]: 1 µg/mL; MIC (Escherichia coli [21]): > 8 µg/mL; MIC (Staphylococcus aureus [22]): 1 µg/mL; MIC (Streptococcus pyogenes): 1 µg/mL; MIC (Escherichia coli [23]): 1 µg/mL
CCn1cc(C(=O)O)c(=O)c2cc(F)c(N3C[C@@H](N)[C@H](N)C3)c(F)c21.Cl | > 8 | > 8 | 4 | 4 | 4 | 8 | > 8 | 4 | 2 | 0.5 | > 8 | 0.125 | 1 | 2 | > 8 | 2 | > 8 | 1 | > 8 | 2 | MIC (Escherichia coli [18]): 0.5 µg/mL; MIC (Pseudomonas aeruginosa [19]): > 8 µg/mL; MIC [20]: 2 µg/mL; MIC (Escherichia coli [21]): > 8 µg/mL; MIC (Staphylococcus aureus [22]): 2 µg/mL; MIC (Streptococcus pyogenes): 2 µg/mL; MIC (Escherichia coli [23]): 1 µg/mL
CN[C@@H]1CN(c2cc3c(cc2F)c(=O)c(C(=O)O)cn3-c2ccccc2F)C[C@H]1NC.O=C(O)C(F)(F)F | > 8 | 4 | 4 | 4 | > 8 | 1 | > 8 | 4 | 4 | 1 | > 8 | 0.06 | 4 | 4 | 0.5 | 0.5 | 2 | 4 | > 8 | 2 | MIC (Escherichia coli [18]): 1 µg/mL; MIC (Pseudomonas aeruginosa [19]): > 8 µg/mL; MIC [20]: 2 µg/mL; MIC (Escherichia coli [21]): > 8 µg/mL; MIC (Staphylococcus aureus [22]): 1 µg/mL; MIC (Streptococcus pyogenes): 0.03 µg/mL; MIC (Escherichia coli [23]): 0.5 µg/mL
CN[C@@H]1CN(c2c(F)c(N)c3c(=O)c(C(=O)O)cn(C4CC4)c3c2F)C[C@H]1NC.Cl | > 8 | 4 | 1 | 0.25 | > 8 | 0.25 | > 8 | 1 | 0.25 | 0.125 | > 8 | 0.06 | 0.25 | 0.25 | 1 | 0.5 | 0.5 | 0.5 | > 8 | 0.25 | MIC (Escherichia coli [18]): 0.06 µg/mL; MIC (Pseudomonas aeruginosa [19]): > 8 µg/mL; MIC [20]: 1 µg/mL; MIC (Escherichia coli [21]): > 8 µg/mL; MIC (Staphylococcus aureus [22]): 0.25 µg/mL; MIC (Streptococcus pyogenes): 0.03 µg/mL; MIC (Escherichia coli [23]): 0.5 µg/mL
CCn1cc(C(=O)O)c(=O)c2cc(F)c(N3C[C@@H](NC)[C@H](NC)C3)c(F)c21.Cl | > 8 | 8 | 8 | 4 | 4 | 8 | > 8 | 4 | 4 | 1 | 8 | 0.5 | 1 | 4 | > 8 | 4 | 8 | 1 | > 8 | 2 | MIC (Escherichia coli [18]): 0.5 µg/mL; MIC (Pseudomonas aeruginosa [19]): > 8 µg/mL; MIC [20]: 2 µg/mL; MIC (Escherichia coli [21]): > 8 µg/mL; MIC (Staphylococcus aureus [22]): 1 µg/mL; MIC (Streptococcus pyogenes): 4 µg/mL; MIC (Escherichia coli [23]): 1 µg/mL
